Source: patent EP0185066B1, “SULPHUR-CONTAINING DERIVATIVES OF PARA-METHOXYCINNAMIC ACID, PRODUCTION PROCESSES THEREOF, DERMO-PHARMACEUTICAL AND COSMETIC COMPOSITIONS CONTAINING THEM AND APPLICATIONS” (UNIVERSITE LOUIS PASTEUR (STRASBOURG I), priority 1984, dated 1986)

Columns and labels:
[1] = UV absorption spectrum (sunscreen filtering range); assay type: physicochemical
Description: Les composés de formule III conformes à la présente invention possèdent des propriétés de filtres solaires intéressants. Ils présentent un maximum d'efficacité tant au niveau de leur capacité d'absorption ultra-violette qu'à celui de leur fixation sur la peau. Leur spectre d'absorption se situe dans la zone des U.V.B. érythématogènes avec un maximum vers 310 nm; ils laissent passer les rayons U.V.A.

[2] = parameters: species or system lapin; conditions: in vivo
Description: Une étude in vivo de la fixation des filtres soufrés de formules III et Il à la couche cornée a été réalisée sur la peau de lapin. Aucune trace d'acide para-méthoxycinnamique, métabolite de tout filtre solaire de formules III ou II, n'a pu être décelée dans le sang des lapins traités. La méthode d'analyse par chromatographie en phase gazeuse couplée à la spectrométrie de masse permet de déceler des concentrations de l'ordre de 10 pg. L'on peut donc en conclure que ces composés ne pénètrent pas dans le torrent circulatoire, contrairement au para-méthoxycinnamate d'éthyle-2-hexyle évoqué dans le préambule ainsi que les produits obtenus à partir du Brevet Pierre FABRE.
Le composé présentant des propriétés de filtre solaire, conforme à la présente invention est incorporé à la concentration 5% dans une émulsion qui peut avoir par exemple la composition suivante:
Méthode de recherche de l'acide para-méthoxycinnamique (métabolite) dans le sang de lapin après application des filtres solaires soufrés conformes à l'invention incorporé dans l'émulsion précédente. • - Conditions d'application et préjèvement plasmatiques
2 g d'émulsion à tester sont appliqués sur la peau épilée du lapin. […] Les mesures sont effectuées sur la fraction plasmatique. - Déterminations quantitatives en CPG(SM […]

Row | maximum d'absorption U.V. [1] | Structure (SMILES) | concentration d'acide para-méthoxycinnamique retrouvé dans le sang [2]
1 | 310 nm | COc1ccc(/C=C/C(=O)OCCS)cc1 [II, para-méthoxycinnamatede thio-2-éthanol] | –
2 | 310 nm | COc1ccc(/C=C/C(=O)OCCSSCC(N)C(=O)O)cc1 (stereo not drawn) [III (n = 2, m = 1, R2 = H et R1 = OH)] | –
3 | – | CCCCC(CC)COC(=O)C=Cc1ccc(OC)cc1 (stereo not drawn) [PMCEH, para-méthoxycinnamate d'éthyle-2 hexyle] | comprise entre le ng et plusieurs µg
